According to patent publication US5196421A, “Excitatory amino acid receptor antagonists in methods for the use thereof” (priority 1992, dated 1993):
Values joined by “and” are separate entries in the source; they are usually repeats but may differ in a detail not shown here. Equal values may be shown once.

Experiments:
[1] = target: T1, Strychnine-Insensitive [^3 H]Glycine Binding Sites, washed membranes of rat brain cortex (Rattus norvegicus, UniProt P35439); experiment: biochemical; settings: for inhibition at 10 µM: 1 h, read-out: [^3 H]-Glycine Binding % DSPL10 @ 10 μM, 10 μM test compound, 60 minutes on ice; for [^3 H]-Glycine Binding % DSPL10 @ 10 μM: 10 μM test compound, 60 minutes on ice
T1 construct: washed membranes of rat brain cortex; from tissue; host or cells: brain cortex membranes, male Sprague-Dawley rats (150-175 g)
Description: (§1) Referring to Table IV, there are shown the results obtained in testing a representative number of these compounds. In Table IV, the activity of the compounds for EAA receptor binding is indicated. Compounds were evaluated for their ability to displace [^3 H]-CGS191755, [^3 H]-glycine, [^3 H]-AMPA and [^3 H]-kainate at a screening concentration of 10 μM.
(§2) Binding assays, except for glycine binding, were performed in accordance with the methods described in Schoepp et al., J. Pharmacology and Exp. Therap., Vol. 255, No. 3, pp. 1301-1308 (1990). For all binding assays, male Sprague-Dawley rats (150-175 g) were used. Displacement of the specific binding of ^3 H]CGS19755 (10 nM) to Triton-X-treated synaptosomal membranes of rat forebrain was used to determine NMDA receptor affinity. Nonspecific binding was determined using 10 μM L-glutamate. Samples were incubated in an ice bath for 30 minutes, and bound ligand was separated from the free ligand by rapid filtration through Whatman GF/B glass fiber filters.
The compounds were examined for their ability to displace [^3 H]-glycine from washed membranes of rat brain cortex according to the methods of Shinohara et al., "Ontogeny of Strychnine-Insensitive [^3 H]Glycine Binding Sites in Rat Forebrain", Neurosci. Lett. 105 (1990) 307-311. In each assay, […] [^3 H]-glycine and 25 μg tissue were incubated with test compounds (10 μM in a total volume of 0.5 ml for 60 minutes on ice; incubations were terminated by centrifugation. Non-specific binding was defined as that remaining in the presence of 10 μM D-serine.

[2] = tested on: AMPA receptor ([^3 H]AMPA binding, crude membranes of rat forebrain); experiment: [^3 H]-AMPA displacement, EAA receptor binding; settings: 10 μM test compound, [^3 H]AMPA 5 nM, 100 mM KSCN
Description: as §1, §2
The binding of [^3 H]AMPA (5 nM) was conducted with crude membranes of rat forebrain in the presence of 100 mM KSCN, as described by Nielsen et al., "Studies on Receptor-Active Conformations of Excitatory Amino Acid Agonists and Antagonists," Eur. J. Med. Chem. Chim. Ther. 21:433-437 (1986). Nonspecific binding was determined with 10 μM nonlabeled AMPA.

[3] = tested on: kainate (KA) receptor ([^3 H]Kainate binding, washed synaptosomal membranes from the rat forebrain); experiment: [^3 H]-kainate displacement, EAA receptor binding; settings: 10 μM test compound, [^3 H]Kainate 5 nM, pH 7.4, 30 min
Description: as §1, §2
[^3 H]Kainate binding was performed using washed synaptosomal membranes from the rat forebrain, prepared as described by Simon et al., "Binding of [^3 H]Kainic Acid, an Analogue of L-Glutamate, to Brain Membranes," J. Neurochem. 26:141-147 (1976). [^3 H]Kainate (5 nM) was added to 50 mM Tris-HCl buffer (pH 7.4 at 4°) containing 200-300 μg/ml of tissue protein. Samples were incubated for 30 minutes in an ice bath and then rapidly filtered using a Brandel cell harvester and Whatman GF/C filters. Filters were washed twice with 3 ml of cold buffer. Nonspecific binding was determined using 100 μM nonlabeled kainate.

SMILES: FC(F)(F)c1nnc2cnc3cc(Cl)c(Cl)cc3n12 [Compound 9, 1-trifluoromethyl-7,8-dichloro-1,2,4-triazolo[4,3-a]quinoxaline]
- inhibition at 10 µM [1]: -6%

SMILES: O=c1[nH]c2cc(C(F)(F)F)ccc2c2ccnn12 [Compound 35, 8-trifluoromethylpyrazolo[1,5-c]quinazolin-5(6H)-one]
- inhibition at 10 µM [1]: 51%
- AMPA % DSPL @ 10 μM [2]: 54.8%
- KA % DSPL @ 10 μM [3]: 8.4%

SMILES: [N-]=[N+]=Nc1cc2c(cc1F)ncc1nnnn12 [Compound 26, 7-fluoro-8-azidotetrazoloquinoxaline]
- [^3 H]-Glycine Binding % DSPL10 @ 10 μM [1]: -2%
- AMPA % DSPL @ 10 μM [2]: -1.8%
- KA % DSPL @ 10 μM [3]: 5.5%

SMILES: CCCCc1nnc2c(=O)[nH]c3cc(Cl)c(Cl)cc3n12 [Compound 8, 1-n-butyl-7,8-dichloro-1,2,4-triazolo[4,3-a]quinoxalin-4(5H)-one]
- inhibition at 10 µM [1]: 60%
- KA % DSPL @ 10 μM [3]: 33.8%

SMILES: Brc1ccc2ncc3nncn3c2c1 [Compound 15, 8-bromo-1,2,4-triazolo[4,3-a]quinoxaline]
- inhibition at 10 µM [1]: -3%
- AMPA % DSPL @ 10 μM [2]: 1.6%
- KA % DSPL @ 10 μM [3]: -4.3%

SMILES: O=c1[nH]c2ccc(Br)cc2c2ccnn12 [Compound 28, 9-bromopyrazolo[1,5-c]quinazolin-5(6H)-one]
- inhibition at 10 µM [1]: 4%
- AMPA % DSPL @ 10 μM [2]: 20.7%
- KA % DSPL @ 10 μM [3]: 2.6%

SMILES: O=c1[nH]c2c(Cl)cccc2c2ccnn12 [Compound 30, 7-Chloropyrazolo[1,5-c]quinazolin-5(6H)-one]
- inhibition at 10 µM [1]: 0%
- AMPA % DSPL @ 10 μM [2]: 14.8%
- KA % DSPL @ 10 μM [3]: -0.4%

SMILES: O=c1[nH]c2cc([N+](=O)[O-])c([N+](=O)[O-])cc2n2cnnc12 [Compound 18, 7,8-dinitro-1,2,4-triazolo[4,3-a]quinoxalin-4(5H)-one]
- inhibition at 10 µM [1]: 50%
- AMPA % DSPL @ 10 μM ([2]; 10 µM): 77.4% and 55.0%
- KA % DSPL @ 10 μM [3]: 15.6%

SMILES: CCCc1nnc2c(=O)[nH]c3cc(Cl)c(Cl)cc3n12 [Compound 6, 1-n-propyl-7,8-dichloro-1,2,4-triazolo[4,3-a]quinoxalin-4(5H)-one]
- inhibition at 10 µM [1]: 75%
- AMPA % DSPL @ 10 μM ([2]; 10 µM): 77.1% and 85.6%
- KA % DSPL @ 10 μM [3]: 32.1%

SMILES: Cc1nnc2cnc3cc(Cl)c(Cl)cc3n12 [Compound 1, 1-methyl-7,8-dichloro-1,2,4-triazolo[4,3-a]quinoxaline]
- inhibition at 10 µM [1]: 0%
- AMPA % DSPL @ 10 μM [2]: 35.1%
- KA % DSPL @ 10 μM [3]: 16.8%

SMILES: CCCCc1nnc2cnc3cc(Cl)c(Cl)cc3n12 [Compound 7, 1-n-butyl-7,8-dichloro-1,2,4-triazolo[4,3-a]quinoxaline]
- inhibition at 10 µM [1]: -2%
- AMPA % DSPL @ 10 μM [2]: 4.2%
- KA % DSPL @ 10 μM [3]: -6.4%

SMILES: O=c1[nH]c2cc(Cl)cc(Cl)c2n2cnnc12 [Compound 14a, 7,9-dichloro-1,2,4-triazolo[4,3a]quinoxalin-4(5H)-one]
- inhibition at 10 µM [1]: 87%

SMILES: Clc1cc2ncc3nnc(-c4ccccc4)n3c2cc1Cl [Compound 11, 1-phenyl-7,8-dichloro-1,2,4-triazolo[4,3-a]quinoxaline]
- inhibition at 10 µM [1]: -3%
- AMPA % DSPL @ 10 μM [2]: 1.7%
- KA % DSPL @ 10 μM [3]: 9.1%

SMILES: O=c1[nH]c2cc([N+](=O)[O-])ccc2n2nnnc12 [Compound 24, 7-nitrotetrazolo[1,5-a]quinoxalin-4(5H)-one]
- inhibition at 10 µM [1]: 2%
- AMPA % DSPL @ 10 μM [2]: 38.4%
- KA % DSPL @ 10 μM [3]: 2.8%

SMILES: O=c1[nH]c2cc([N+](=O)[O-])c([N+](=O)[O-])cc2n2nnnc12 [Compound 25, 7,8-dinitrotetrazolo[1,5-a]quinoxalin-4(5H)-one]
- inhibition at 10 µM [1]: 3%
- KA % DSPL @ 10 μM ([3]; 10 µM): 0.4% and -2.1%

SMILES: O=c1[nH]c2cc(Cl)c(Cl)cc2n2c(-c3ccccc3)nnc12 [Compound 12, 1-Phenyl-7,8-dichloro-1,2,4-triazolo[4,3-a]quinoxalin-4(5H)-one]
- inhibition at 10 µM [1]: -1%
- AMPA % DSPL @ 10 μM [2]: 3.6%
- KA % DSPL @ 10 μM [3]: 8.2%

SMILES: CCCc1nnc2cnc3cc(Cl)c(Cl)cc3n12 [Compound 5, 1-n-propyl-7,8-dichloro-1,2,4-triazolo[4,3-a]quinoxaline]
- inhibition at 10 µM [1]: 2%
- AMPA % DSPL @ 10 μM [2]: -1.6%
- KA % DSPL @ 10 μM [3]: 3.9%

SMILES: O=c1[nH]c2cc(Cl)c(Cl)cc2n2cnnc12 [Compound 12a, 7,8-dichloro-1,2,4-triazolo[4,3-a]quinoxalin-4(5H)-one]
- [^3 H]-Glycine Binding % DSPL10 @ 10 μM ([1]; 60 min, 10 µM): 79% and 42%
- AMPA % DSPL @ 10 μM ([2]; 10 µM): 64.3% and 67.9%

SMILES: Cc1nnc2c(=O)[nH]c3cc(Cl)c(Cl)cc3n12 [Compound 2, 1-methyl-7,8-dichloro-1,2,4-triazolo[4,3-a]quinoxalin-4(5H)-one]
- inhibition at 10 µM [1]: 18%
- AMPA % DSPL @ 10 μM ([2]; 10 µM): 78.3% and 75.1%
- KA % DSPL @ 10 μM [3]: 28.0%

SMILES: O=c1[nH]c2ccc(Cl)cc2c2nc3ccccc3n12 [Compound 38, chlorobenzimidazo[1,2-a]quinazolin-4(5H)-one]
- inhibition at 10 µM [1]: 3%
- AMPA % DSPL @ 10 μM [2]: 4.1%
- KA % DSPL @ 10 μM [3]: -0.8%

SMILES: O=c1[nH]c2ccc(Cl)cc2c2ccnn12 [Compound 29, 9-Chloropyrazolo[1,5-c]quinazolin 5(6H)-one]
- inhibition at 10 µM [1]: 5%
- AMPA % DSPL @ 10 μM [2]: 23.1%
- KA % DSPL @ 10 μM [3]: 0.3%

SMILES: Clc1cc2ncc3nccn3c2cc1Cl [Compound 36, 7,8-dichloroimidazo[1,2-a]quinoxaline]
- inhibition at 10 µM [1]: 88%
- AMPA % DSPL @ 10 μM [2]: 53.3%
- KA % DSPL @ 10 μM [3]: 23.6%

SMILES: [N-]=[N+]=Nc1cc2c(cc1F)[nH]c(=O)c1nnnn12 [Compound 27, 7-fluoro-8-azidotetrazoloquinoxalin-4(5H)-one]
- inhibition at 10 µM [1]: 5%
- AMPA % DSPL @ 10 μM [2]: 1.7%
- KA % DSPL @ 10 μM [3]: 2.5%

SMILES: CCc1nnc2cnc3cc(Cl)c(Cl)cc3n12 [Compound 3, 1-ethyl-7,8-dichloro-1,2,4-triazolo[4,3-a]quinoxaline]
- inhibition at 10 µM [1]: 63%
- AMPA % DSPL @ 10 μM [2]: 7.9%
- KA % DSPL @ 10 μM [3]: 12.0%

SMILES: O=[N+]([O-])c1ccc2c(c1)ncc1nnnn12 [Compound 23, 7-nitrotetrazolo[1,5-a]quinoxaline]
- inhibition at 10 µM [1]: -1%
- AMPA % DSPL @ 10 μM [2]: 1.0%
- KA % DSPL @ 10 μM [3]: -3.8%

SMILES: Cc1cc2c3ccccc3[nH]c(=O)n2n1 [Compound 34, 2-methylpyrazolo[1,5-c]quinazolin-5(6H)-one]
- inhibition at 10 µM [1]: 13%
- AMPA % DSPL @ 10 μM [2]: 0.2%
- KA % DSPL @ 10 μM [3]: 0.9%

SMILES: O=c1[nH]c2cc(Cl)c(Cl)cc2n2nnnc12 [Compound 27a, 7,8-dichlorotetrazolo[1,5-a]quinoxalin-4(5H)-one]
- inhibition at 10 µM [1]: 37%
- AMPA % DSPL @ 10 μM [2]: 38%

SMILES: O=c1[nH]c2cc(Cl)c(Cl)cc2c2ccnn12 [Compound 32, 8,9-dichloropyrazolo[1,5-c]quinazolin-5(6H)-one]
- AMPA % DSPL @ 10 μM ([2]; 10 µM): 4.9% and 9.3%
- KA % DSPL @ 10 μM [3]: -0.1%
